Literature values, collected in patent US7294691B1, “Soluble secreted α2δ-2calcium channel subunit polypeptide” (Warner Lambert Company, priority 2000, dated 2007).

Test system: [^3H]gabapentin binding site
Settings: saturation binding in the presence of L-leucine; reduces [^3H]gabapentin binding affinity

CC(C)C[C@H](N)C(=O)O [L-Leucine]
interaction with the [^3H]gabapentin binding site: competitive interaction
